# Values joined by “and” are separate entries in the source; they are usually repeats but may differ in a detail not shown here. Identical values can stand only once. Like-named read-outs stand apart in the source and are kept apart here.
# How the values were obtained:
# [1] = cited from earlier work
# patient-derived GSCs = test: GSC viability (CellTiter-Glo, 48 h); type: cell-based, human; parameters: %Survival of cells at day 0 (ATP levels): concentration or dose not given beside the values; %Survival (ATP levels): reference not given here; conditions: for %Survival (ATP levels): 1 μM, 48 h, individual replicates, listed as PU-H71; for %Survival of cells at day 0 (ATP levels): mean
# [2] = molecular target: HSP90 pools in JNPL3 (AD transgenic) mouse brain lysate; test: Fluorescence polarization (FP) competitive binding, cy3B-GM; conditions: read-out: FP relative affinity
# MDA-MB-468 cells = test: Cell viability, ATP levels 72 h; type: cell-based, human; conditions: control MDA-MB-468 of Fig. 6f; mean
# [3] = Pharmacokinetic studies in mice (LC-MS/MS); type: in vivo, B6D2F1 mice; conditions: male, B6D2F1, mouse, iv, i.v. 10 mg kg^−1
# Method: Blood and brain tissue were collected following euthanasia at the scheduled time points of 5, 30 min, 1, 4, and 8 h following iv dosing and of 30 min, 1, 4, and 8 h following po dosing. Brain samples were immediately flash frozen in liquid nitrogen following collection and stored at −80 °C until analysis. Blood samples were collected into an EDTA tube by heart puncture and centrifuged at 17,000×g for 5 min at 4 °C to separate the plasma and immediately frozen on dry ice and stored at −80 °C until analysis. […] This was homogenized, extracted with methylene chloride, and evaporated on a GeneVac. […] Drug concentration (μM) in the brain was then modified to account for an average water space of 0.8 mL g^−1.
compound,measurement,setting,value
"CC(C)NCCCn1c(Sc2cc3c(cc2I)OCO3)nc2c(N)ncnc21 [Compound 1, reference compound]",PAMPA_BBB,PAMPA-BBB permeability; Supplementary Table 6,7.3±0.5
same,"Papp at 16 h, 50 μM","PAMPA-BBB permeability; pig, PAMPA, pH 7.4",7.3 ×10⁻⁶ cm/s
same,"SUV average, Brain","[1]; 0.5 h, mean n=14",0.17 SUV
same,"SUV average, Lung","[1]; 0.5 h, mean n=14",0.66 SUV
same,"SUV average, Muscle","[1]; 0.5 h, mean n=14",0.59 SUV
same,"SUV average, Brain","[1]; 3 h, mean n=24",0.1104 SUV
same,"SUV average, Lung","[1]; 3 h, mean n=24",0.37 SUV
same,"SUV average, Muscle","[1]; 3 h, mean n=24",0.43 SUV
same,"SUV average, Brain","[1]; 24 h, mean n=24",0.0956 SUV
same,"SUV average, Lung","[1]; 24 h, mean n=24",0.18 SUV
same,"SUV average, Muscle","[1]; 24 h, mean n=24",0.18 SUV
same,%Survival (ATP levels),patient-derived GSCs; GSC #5,41.476% and 5.798% and 38.7842% and 30.5485%
same,%Survival (ATP levels),patient-derived GSCs; GSC #6,-6.57% and -27.89% and 1.15% and -9.59%
same,%Survival (ATP levels),patient-derived GSCs; GSC #7,-25.19% and -34.61% and -39.02% and -55.29%
same,%Survival (ATP levels),patient-derived GSCs; GSC #8,-77.2% and -77.91% and -68.52% and -70.63%
same,%Survival (ATP levels),patient-derived GSCs; GSC #9,-61.441% and -69.079% and -26.869% and -37.387% and -60.84%
same,%Survival (ATP levels),patient-derived GSCs; GSC #10,-33.379% and -62.081% and -10.588% and -35.788%
same,%Survival (ATP levels),patient-derived GSCs; GSC #13,34.82% and 22.05% and 9.61% and -0.49%
same,%Survival (ATP levels),patient-derived GSCs; GSC #15,-13.07% and -44.27% and -29% and -48.76%
same,%Survival (ATP levels),patient-derived GSCs; GSC #18,-1.04% and -53.07% and -13.29% and -52.53% and 13.24% and -19.8%
same,%Survival (ATP levels),patient-derived GSCs; GSC #19,-8.867% and -20.5667% and 16.158% and 1.691%
same,%Survival (ATP levels),patient-derived GSCs; GSC #24,12.98% and -42.57% and -22.24% and -59.3% and -24.55% and -39.04%
same,%Survival (ATP levels),patient-derived GSCs; GSC #30,-64.892% and -76.295% and -41.317% and -38.952%
same,%Survival (ATP levels),patient-derived GSCs; GSC #31,52.42% and 26.79% and -5.03% and -0.87% and 70.08% and 45.37%
same,%Survival of cells at day 0 (ATP levels),patient-derived GSCs; GSC# 5,29.1%
same,%Survival of cells at day 0 (ATP levels),patient-derived GSCs; GSC# 6,-10.7%
same,%Survival of cells at day 0 (ATP levels),patient-derived GSCs; GSC# 8,-73.6%
same,%Survival of cells at day 0 (ATP levels),patient-derived GSCs; GSC# 9,-51.1%
same,%Survival of cells at day 0 (ATP levels),patient-derived GSCs; GSC# 10,-35.4%
same,%Survival of cells at day 0 (ATP levels),patient-derived GSCs; GSC# 13,16.5%
same,%Survival of cells at day 0 (ATP levels),patient-derived GSCs; GSC# 15,-33.8%
same,%Survival of cells at day 0 (ATP levels),patient-derived GSCs; GSC# 17,16.9%
same,%Survival of cells at day 0 (ATP levels),patient-derived GSCs; GSC# 18,-21.1%
same,%Survival of cells at day 0 (ATP levels),patient-derived GSCs; GSC# 19,-2.9%
same,%Survival of cells at day 0 (ATP levels),patient-derived GSCs; GSC# 24,-29.1%
same,%Survival of cells at day 0 (ATP levels),patient-derived GSCs; GSC# 30,-55.4%
same,%Survival of cells at day 0 (ATP levels),patient-derived GSCs; GSC# 31,31.5%
same,EC50,[2],11 nM
same,%Survival of cells at day 0 (ATP levels),MDA-MB-468 cells,-92.5%
same,AUC,"[3]; brain, read-out: brain exposure, AUC",0.89 µM·h
same,AUC,"[3]; plasma, read-out: plasma exposure, AUC",3.47 µM·h

# Source: article PMC8333062, “Chemical tools for epichaperome-mediated interactome dysfunctions of the central nervous system” (Nature Communications, 2021)
